From patent publication US9547001B2, “Antibody specific for trans-resveratrol and use thereof” (IP Science Limited, priority 2011, dated 2017)
Several values for one entry are separate records, joined by “and”; a condition that tells them apart may be missing. Identical values can stand only once.

Tests used:
Format in all cases: in vivo
[1] = HPLC-MS measurement of tRV in human serum after 1 mg tRV in 200 ml red wine (wine study); conditions: sum of 1 h + 2 h + 4 h + 6 h + 8 h, one value per volunteer
Experimental: The same volunteers also participated in a wine study. The same “wash out” period was used, and the same timing of the experiment was applied. Instead of taking a capsule of tRV each of the volunteers consumed 200 ml of red wine, which was selected on a basis that it would contain 1 mg of tRV in this volume. The rest of the Protocol employed was the same as above.
After taking blood, serum was separated, aliquoted and stored at −80° C. for further testing.

[2] = anti-tRV ELISA measurement of tRV in human serum after 1 mg tRV in 200 ml red wine (wine study); conditions: sum of 1 h + 2 h + 4 h + 6 h + 8 h, one value per volunteer
Experimental: (§1) 2 ml of ethyl acetate was added to 0.5 ml of serum sample, then mixed on a vortex for 3 minutes, followed by centrifugation for 2 minutes at 500 r/min. The upper layer of ethyl acetate was transferred into a new tube. To the remaining lower water fraction a second portion of 2 ml ethyl acetate was added and the extraction procedure was repeated. The new ethyl acetate fraction was added to the old one, giving a total volume of 4 ml, which was then dried by air flow at 60° C., using a Reacti-Therm™III, Thermo scientific, USA.[…]. 40 μl of ethanol was then added and mixed on vortex, then 160 μl of PBS with 0.5% BSA was added and mixed again. This final solution was used for the analysis described below.
RV-BSA was pre-absorbed on microplate wells in 0.1M carbonate buffer, pH=9.5 (at a concentration of 5 μg/ml) overnight at 4° C. […]
(§2) The plate was washed out four times with PBST, and then a chromogeninc substrate was added, tetramethylbenzidine+H2O2. After stopping the reaction with 1M H2SO4, optic density was read at λ450 nm, Multiscan EX (<<Thermo>>, USA).
Inhibition by free tRV of the binding of serum antibodies with immobolised RV-BSA (Kin) was calculated according to the following formula: Kin=100−(A450D/A450C−)×100, where: • A450D is the optic density in samples with free tRV (testing serum or samples from the calibrating curve), • A450 C is the an optic density without free tRV. […]

[3] = HPLC-MS measurement of tRV in human serum after 100 mg tRV capsule (nutraceutical study)
Experimental: (§3) The group of 5 volunteers comprised of 2 female and 3 male clinically healthy Caucasian persons, age between 23 and 35 years.
(§4) They were asked, before commencing this experiment, to go for 3-4 days “wash-out”, when consumption of any grape, wine, peanut, chocolate and other products which might contain them.
(§5) In the morning of the experiment, one hour after light breakfast, volunteers were given 1 gelatine capsule containing 100 mg of tRV.
(§6) Blood samples were taken from their median cubital or cephalic veins at the baseline point. Then, after administration of tRV, their blood was taken again at the following time points: 30 minutes, 1 hour, 2, 3, 4, 6 and 8 hours.
(§7) After taking blood its serum was separated, aliquoted and stored at −80° C. for further testing.

[4] = anti-tRV ELISA measurement of tRV in human serum after 100 mg tRV capsule (nutraceutical study)
Experimental: as §1
RV-BSA was pre-absorbed on microplate wells in 0.1M carbonate buffer, pH=9.5 (at a concentration of 5 μg/ml) overnight at 4° C. After washing four times the PBST plate was blocked with PBS contacting 1% of Top Block (<<Yuro>>, Switzerland).
For the calibrating curve different concentrations of tRV were added into the wells. The stock solution used was 1 mg/ml of tRV diluted in PBST with 0.5% BSA and 20% ethanol. 50 μl of each serum extract to be tested were added to parallel wells. After which 50 μl of the conjugate of HRP with monoclonal anti-tRV antibodies was added to all the wells. The content of the wells was mixed using a shaker for 1 minute and then the plate was then incubated for 1 hour at +37° C.
as §2
Inhibition by free tRV of the binding of serum antibodies with immobolised RV-BSA (Kin) was calculated according to the following formula: Kin=100−(A450D/A450C−)×100, where: • A450D is the optic density in samples with free tRV (testing serum or samples from the calibrating curve), • A450 C is the an optic density without free tRV.
as §3, §4, §5, §6, §7

[5] = 1 h after 100 mg tRV, volunteers 1 and 2
[6] = 2 h after 100 mg tRV, volunteers 1 and 2
[7] = human serum, 100 mg tRV dietary supplement, sum of 30 min + 1 h + 2 h + 3 h + 4 h + 6 h + 8 h, one value per volunteer
[8] = human, serum, oral, 100 mg, 1 h after 100 mg tRV, volunteers 1 and 2
[9] = human, serum, oral, 100 mg, 2 h after 100 mg tRV, volunteers 1 and 2

Oc1ccc(/C=C/c2cc(O)cc(O)c2)cc1 [tRV, trans-Resveratrol]
Concentration of tRV in serum as a sum of 5 separate measurements, HPLC-MS [1]: 6 ng/ml and 572 ng/ml and 0 ng/ml (3×)
Concentration of tRV in serum as a sum of 5 separate measurements, ELISA [2]: 310 ng/mL and 850 ng/mL and 120 ng/mL and 460 ng/mL and 380 ng/mL
Concentration of tRV in serum, HPLC-MS [3, 5]: 97 ng/mL
Concentration of tRV in serum, HPLC-MS [3, 6]: 21 ng/mL
Concentration of tRV in serum as a sum of 7 separate measurements, HPLC-MS [3, 7]: 98 ng/mL and 139 ng/mL and 79 ng/mL and 37 ng/mL and 107 ng/mL
concentration at 1 h [3, 8]: 65 ng/mL
concentration at 2 h [3, 9]: 12 ng/mL
Concentration of tRV in serum, ELISA ([4]; 30 min after 100 mg tRV, volunteers 1 and 2): 90 ng/mL
Concentration of tRV in serum, ELISA [4, 5]: 490 ng/mL
Concentration of tRV in serum, ELISA [4, 6]: 255 ng/mL
Concentration of tRV in serum, ELISA ([4]; 3 h after 100 mg tRV, volunteers 1 and 2): 10 ng/mL
Concentration of tRV in serum, ELISA ([4]; 4 h after 100 mg tRV, volunteers 1 and 2): 195 ng/mL
Concentration of tRV in serum, ELISA ([4]; 6 h after 100 mg tRV, volunteers 1 and 2): 620 ng/mL
Concentration of tRV in serum as a sum of 7 separate measurements, ELISA [4, 7]: 1600 ng/mL and 1900 ng/mL and 1070 ng/mL and 795 ng/mL and 1412 ng/mL
concentration at 30 min ([4]; human, serum, oral, 100 mg, 30 min after 100 mg tRV, volunteers 1 and 2): 140 ng/mL
concentration at 1 h [4, 8]: 650 ng/mL
concentration at 2 h [4, 9]: 210 ng/mL
concentration at 3 h ([4]; human, serum, oral, 100 mg, 3 h after 100 mg tRV, volunteers 1 and 2): 20 ng/mL
concentration at 4 h ([4]; human, serum, oral, 100 mg, 4 h after 100 mg tRV, volunteers 1 and 2): 135 ng/mL
concentration at 6 h ([4]; human, serum, oral, 100 mg, 6 h after 100 mg tRV, volunteers 1 and 2): 420 ng/mL
